In patent publication US20070027150A1 (priority 2005, published 2007):

molecular target: His-tagged N-terminal ATP binding domain (amino acid residues 9-236) of HSP90α (Homo sapiens, UniProt P07900); test: HSP90 inhibitor binding potency: TRF competition binding assay; conditions: Table I; read-out: Hsp90 IC50 Range
Outline: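 His-tagged HSP90α N-domain (residues 9-236) incubated 2 h at room temperature with biotinylated radicicol and increasing compound in 50 mM HEPES, 6 mM MgCl2, 20 mM KCl, 0.1% BSA. Bound tracer captured on streptavidin plates, detected with europium anti-His antibody by time-resolved fluorescence; IC50 derived.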

| Structure (SMILES) | IC50 [µM] |
| --- | --- |
| Cc1nc(N)nc2c1C(=O)CC(c1ccccc1-c1ccccc1CO)C2 (stereo not drawn) [Compound 67, 2-amino-7-[2′-(hydroxymethyl)-1,1′-biphenyl-2-yl]-4-methyl-7,8-dihydroquinazolin-5(6H)-one] | < 1 |
| Cc1nc(N)nc2c1C(=O)CC(c1cccnc1C1=CCCCC1)C2 (stereo not drawn) [Compound 45, 2-amino-7-(2-cyclohex-1-en-1-ylpyridin-3-yl)-4-methyl-7,8-dihydroquinazolin-5(6H)-one] | < 1 |
| Cc1nc(N)nc2c1C(=O)CC(c1ccccc1-c1cccc(F)n1)C2 (stereo not drawn) [Compound 122, 2-amino-7-[2-(6-fluoropyridin-2-yl)phenyl]-4-methyl-7,8-dihydroquinazolin-5(6H)-one] | < 1 |
| COc1cccc(Br)c1C1CC(=O)c2c(C)nc(N)nc2C1 (stereo not drawn) [Compound 18, 2-amino-7-(2-bromo-6-methoxy-phenyl)-4-methyl-7,8-dihydro-6H-quinazolin-5-one] | 1 to 10 |
| Cc1nc(N)nc2c1C(=O)CC(c1ccccc1-c1cc(F)cnc1Cl)C2 (stereo not drawn) [Compound 101, 2-amino-7-[2-(2-chloro-5-fluoropyridin-3-yl)phenyl]-4-methyl-7,8-dihydroquinazolin-5(6H)-one] | < 1 |
| Cc1nc(N)nc2c1C(=O)CC(c1cccc(-c3cccnc3F)c1)C2 (stereo not drawn) [Compound 54] | > 10 |
| Cc1nc(N)nc2c1C(=O)CC(c1ccccc1C#Cc1ccccc1)C2 (stereo not drawn) [Compound 37, 2-amino-4-methyl-7-[2-(phenylethynyl)phenyl]-7,8-dihydroquinazolin-5(6H)-one] | > 10 |
| Cc1nc(N)nc2c1C(=O)CC(c1c(O)cccc1Cl)C2 (stereo not drawn) [Compound 168, 2-Amino-7-(2-chloro-6-hydroxy-phenyl)-4-methyl-7,8-dihydro-6H-quinazolin-5-one] | > 10 |
| Cc1nc(N)nc2c1C(=O)CC(c1ccccc1-c1cccc(NS(C)(=O)=O)c1)C2 (stereo not drawn) [Compound 114, N-[2′-(2-amino-4-methyl-5-oxo-5,6,7,8-tetrahydroquinazolin-7-yl)-1,1′-biphenyl-3-yl]methanesulfonamide] | 1 to 10 |
| Cc1ccc(Oc2ccccc2C2CC(=O)c3c(C)nc(N)nc3C2)cc1 (stereo not drawn) [Compound 136, 2-amino-4-methyl-7-[2-(4-methylphenoxy)phenyl]-7,8-dihydroquinazolin-5(6H)-one] | > 10 |
| Cc1ccccc1Oc1ccccc1C1CC(=O)c2c(C)nc(N)nc2C1 (stereo not drawn) [Compound 134, 2-amino-4-methyl-7-[2-(2-methylphenoxy)phenyl]-7,8-dihydroquinazolin-5(6H)-one] | < 1 |
| Cc1nc(N)nc2c1C(=O)CC(c1ccccc1-c1cnn(C)c1)C2 (stereo not drawn) [Compound 43, 2-amino-4-methyl-7-[2-(1-methyl-1H-pyrazol-4-yl)phenyl]-7,8-dihydroquinazolin-5(6H)-one] | 1 to 10 |
| Cc1nc(N)nc2c1C(=O)CC(c1ccccc1Oc1cncnc1)C2 (stereo not drawn) [Compound 142, 2-amino-4-methyl-7-[2-(pyrimidin-5-yloxy)phenyl]-7,8-dihydroquinazolin-5(6H)-one] | < 1 |
| Cc1nc(N)nc2c1C(=O)CC(c1cccnc1-c1nccs1)C2 (stereo not drawn) [Compound 36, 2-amino-4-methyl-7-[2-(1,3-thiazol-2-yl)pyridin-3-yl]-7,8-dihydroquinazolin-5(6H)-one] | 1 to 10 |
| Cc1nc(N)nc2c1C(=O)CC(c1ccccc1-c1ccc(F)cc1F)C2 (stereo not drawn) [Compound 84, 2-amino-7-(2′,4′-difluoro-1,1′-biphenyl-2-yl)-4-methyl-7,8-dihydroquinazolin-5(6H)-one] | < 1 |
| COc1ccc(-c2cccnc2)c(C2CC(=O)c3c(C)nc(N)nc3C2)c1 (stereo not drawn) [Compound 71, 2-amino-7-(5-methoxy-2-pyridin-3-ylphenyl)-4-methyl-7,8-dihydroquinazolin-5(6H)-one] | < 1 |
| Cc1nc(N)nc2c1C(=O)CC(c1ccccc1Oc1ccnc(Cl)c1)C2 (stereo not drawn) [Compound 147, 2-amino-7-{2-[(2-chloropyridin-4-yl)oxy]phenyl}-4-methyl-7,8-dihydroquinazolin-5(6H)-one] | 1 to 10 |

same assay, conditions: Table II; read-out: Hsp90 IC50 Range

| Structure (SMILES) | IC50 [µM] |
| --- | --- |
| COc1nc(-c2cc(F)ccc2[C@H]2CC(=O)c3c(C)nc(N)nc3C2)ncc1Cl [Compound 299, (R)-2-amino-7-[2-(5-chloro-4-methoxy-pyrimidin-2-yl)-4-fluoro-phenyl]-4-methyl-7,8-dihydro-6H-quinazolin-5-one] | < 1 |
| COc1nc(-n2ccnc2[C@H]2CC(=O)c3c(C)nc(N)nc3C2)ncc1C [Compound 207, (R)-2-amino-7-[1-(4-methoxy-5-methyl-pyrimidin-2-yl)-1H-imidazol-2-yl]-4-methyl-7,8-dihydro-6H-quinazolin-5-one] | > 10 |
| C#CCCOc1cc(F)ccc1C1CC(=O)c2c(C)nc(N)nc2C1 (stereo not drawn) [Compound 192, 2-amino-7-(2-but-3-ynyloxy-4-fluoro-phenyl)-4-methyl-7,8-dihydro-6H-quinazolin-5-one] | < 1 |
| COc1ccc(F)c(-c2cc(F)ccc2C2CC(=O)c3c(C)nc(N)nc3C2)c1 (stereo not drawn) [Compound 186, 2-amino-7-(5,2′-difluoro-5′-methoxy-biphenyl-2-yl)-4-methyl-7,8-dihydro-6H-quinazolin-5-one] | < 1 |
| COc1cnc(-c2cc(F)ccc2[C@@H]2CC(=O)c3c(C)nc(N)nc3C2)nc1OC [Compound 288, (S)-2-amino-7-[2-(4,5-dimethoxy-pyrimidin-2-yl)-4-fluoro-phenyl]-4-methyl-7,8-dihydro-6H-quinazolin-5-one] | < 1 |
| COCc1nc(N)nc2c1C(=O)CC(c1ccccc1)C2 (stereo not drawn) [Compound 211, 2-amino-4-methoxymethyl-7-phenyl-7,8-dihydro-6H-quinazolin-5-one] | > 10 |
| COc1nc(Cl)ncc1-c1cc(F)ccc1C1CC(=O)c2c(C)nc(N)nc2C1 (stereo not drawn) [Compound 273, 2-amino-7-[2-(2-chloro-4-methoxy-pyrimidin-5-yl)-4-fluoro-phenyl]-4-methyl-7,8-dihydro-6H-quinazolin-5-one] | < 1 |
| Cc1nc(N)nc2c1C(=O)CC(c1ccc(F)cc1OC1CCCC1)C2 (stereo not drawn) [Compound 181, 2-amino-7-(2-cyclopentyloxy-4-fluoro-phenyl)-4-methyl-7,8-dihydro-6H-quinazolin-5-one] | < 1 |
| Cc1nc(N)nc2c1C(=O)CC(c1cccc(F)c1-c1cccnc1F)C2 (stereo not drawn) [Compound 222, 2-amino-7-[3-fluoro-2-(2-fluoro-pyridin-3-yl)-phenyl]-4-methyl-7,8-dihydro-6H-quinazolin-5-one] | < 1 |
| Nc1nc(Cc2ccc(F)cc2)c2c(n1)CC(c1ccccc1)CC2=O (stereo not drawn) [Compound 307, 2-amino-4-(4-fluoro-benzyl)-7-phenyl-7,8-dihydro-6H-quinazolin-5-one] | 1 to 10 |
| C#Cc1cccc(-n2ccnc2C2CC(=O)c3c(C)nc(N)nc3C2)c1 (stereo not drawn) [Compound 197, 2-amino-7-[1-(3-ethynyl-phenyl)-1H-imidazol-2-yl]-4-methyl-7,8-dihydro-6H-quinazolin-5-one] | < 1 |
| CCc1ccccc1-n1ccnc1C1CC(=O)c2c(C)nc(N)nc2C1 (stereo not drawn) [Compound 195, 2-amino-7-[1-(2-ethyl-phenyl)-1H-imidazol-2-yl]-4-methyl-7,8-dihydro-6H-quinazolin-5-one] | < 1 |
| CCc1nc(N)nc2c1C(=O)CC(c1ccc(F)cc1-c1cnc(N)c(OC)n1)C2 (stereo not drawn) [Compound 335, 2-amino-7-[2-(5-amino-6-methoxy-pyrazin-2-yl)-4-fluoro-phenyl]-4-ethyl-7,8-dihydro-6H-quinazolin-5-one] | < 1 |
